Data published in patent US20200131144A1, “AMINE OR (THIO)AMIDE CONTAINING LXR MODULATORS” (Phenex-FXR GmbH, priority 2017, published 2020).

Legend:
[1] = target: T1, GST-LXRβ ligand-binding domain (Homo sapiens, UniProt P55055, INS174Q); experiment: TR-FRETβ activity assay (NCoA3 coactivator peptide recruitment); format: biochemical; conditions: 1 μM 24(S)-25-epoxycholesterol as prestimulating agonist; inverse agonist unless *
T1 construct: amino acids 156-461; NP009052; made in house; host or cells: E. coli
T1 sequence (P55055 with tags, fused parts or gaps INS174Q limits assumed): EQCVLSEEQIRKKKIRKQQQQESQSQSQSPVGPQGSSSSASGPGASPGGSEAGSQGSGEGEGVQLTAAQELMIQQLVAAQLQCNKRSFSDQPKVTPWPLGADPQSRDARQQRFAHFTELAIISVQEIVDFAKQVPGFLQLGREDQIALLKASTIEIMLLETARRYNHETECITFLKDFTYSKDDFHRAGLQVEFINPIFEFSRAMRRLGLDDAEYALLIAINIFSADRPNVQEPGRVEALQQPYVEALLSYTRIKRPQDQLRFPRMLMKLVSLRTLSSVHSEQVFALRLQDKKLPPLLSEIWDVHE
Procedure: The tested compounds were usually dissolved, tested and stored as 20 mM stock solutions in DMSO. […] Sulfonyl acetic acid derivatives are shelf stable as solid at rt for long time as reported by Griesbrecht et al. (Synlett 2010:374) or Faucher et al. (J. Med. Chem. 2004; 47:18). TR-FRETβ Activity Assay Recombinant GST-LXRβ ligand-binding domain (LBD; amino acids 156-461; NP009052; SEQ ID NO:4) was expressed in E. coli and purified via gluthatione-sepharose affinity chromatography. N-terminally biotinylated NCoA3 coactivator peptide (SEQ ID NO:7) was chemically synthesized (Eurogentec). […] Finally, a detection mix was added containing anti GST-Tb cryptate (CisBio; 610SAXLB) and Streptavidin-XL665 (CisBio; 610SAXLB) as fluorescent donor and acceptor, respectively, as well as the coactivator peptide and LXRβ-LBD protein (SEQ ID NO:4). The reaction was mixed thoroughly, equilibrated for 1 h at 4° C. and vicinity of LXRβ and coactivator peptide was detected by measurement of fluorescence in a VictorX4 multiplate reader (PerkinElmer Life Science) using 340 nm as excitation and 615 and 665 nm as emission wavelengths. Assays were performed in triplicates. Final Assay Concentrations of Components: 240 mM KCl, 1 μg/μL BSA, 0.002% Triton-X-100, 125 pg/μL anti GST-Tb cryptate, 2.5 ng/μL Streptavidin-XL665, coactivator peptide (400 nM), LXRP protein ([…], i.e. 76 nM).

LXRβ full length (FL) = target: T2, LXRβ full length (FL) (Homo sapiens, UniProt P55055, INS174Q); experiment: LXR Gal4 reporter transient transfection assay, mammalian two-hybrid, FL-M2H Gal4β; format: cell-based; conditions: HEK293 cells; inverse agonist unless *
T2 construct: the full length (FL) proteins of LXRα (amino acids 1-447); NP005684; NP009052; expressed in transfected cells; host or cells: HEK293
T2 sequence (P55055 with tags, fused parts or gaps INS174Q): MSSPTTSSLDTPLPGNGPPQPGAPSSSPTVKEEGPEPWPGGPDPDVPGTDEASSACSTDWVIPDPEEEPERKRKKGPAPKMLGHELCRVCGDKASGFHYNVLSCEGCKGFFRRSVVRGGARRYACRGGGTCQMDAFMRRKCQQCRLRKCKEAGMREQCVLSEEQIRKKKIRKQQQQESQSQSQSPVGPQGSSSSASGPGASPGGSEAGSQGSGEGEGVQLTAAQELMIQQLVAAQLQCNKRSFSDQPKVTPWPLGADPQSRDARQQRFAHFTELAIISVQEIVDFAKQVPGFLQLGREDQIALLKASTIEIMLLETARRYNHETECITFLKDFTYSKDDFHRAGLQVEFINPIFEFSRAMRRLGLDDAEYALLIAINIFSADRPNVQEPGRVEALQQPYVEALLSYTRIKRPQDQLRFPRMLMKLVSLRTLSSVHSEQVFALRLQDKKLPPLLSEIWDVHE
Procedure: (§1) The tested compounds were usually dissolved, tested and stored as 20 mM stock solutions in DMSO. Since sulfonyl acetic acid derivatives tend to decarboxylate under these conditions, these stock solutions were prepared, tested and stored as 20 mM DMSO stock solutions containing 100 mM trifluoroacetic acid (5 equivalents). Sulfonyl acetic acid derivatives are shelf stable as solid at rt for long time as reported by Griesbrecht et al. (Synlett 2010:374) or Faucher et al. (J. Med. Chem. 2004; 47:18).
(§2) LXR Gal4 Reporter Transient Transfection Assays
(§3) LXRα and LXRβ activity status was determined via detection of interaction with coactivator and corepressor proteins in mammalian two-hybrid experiments (M2H). For this, via transient transfection the full length (FL) proteins of LXRα (amino acids 1-447; NP005684; SEQ ID NO:1) or LXRβ-(amino acids 1-461; NP009052; SEQ ID NO:2) or the ligand-binding domains (LBD) of LXRα (amino acids 155-447 SEQ ID NO:3) or LXR (amino acids 156-461; SEQ ID NO:4) were expressed from pCMV-AD (Stratagene) as fusions to the transcriptional activation domain of NFkB. As cofactors, domains of either the steroid receptor coactivator 1 (SRC1; amino acids 552-887; SEQ ID NO:5) or of the corepressor NCoR (amino acids 1906-2312; NP006302; SEQ ID NO:6) were expressed as fusions to the DNA binding domain of the yeast transcription factor GAL4 (from pCMV-BD; Stratagene). Interaction was monitored via activation of a coexpressed Firefly Luciferase Reporter gene under control of a promoter containing repetitive GAL4 response elements (vector pFRLuc; Stratagene). Transfection efficiency was controlled via cotransfection of constitutively active pRL-CMV Renilla reniformis luciferase reporter (Promega). HEK293 cells were grown in minimum essential medium (MEM) with 2 mM L-glutamine and Earle's balanced salt solution supplemented with 8.3% fetal bovine serum, 0.1 mM non-essential amino acids, 1 mM sodium pyruvate, at 37° C. in 5% CO2. 3.5×10^4 cells/well were plated in 96-well cell culture plates in growth medium supplemented with 8.3% fetal bovine serum for 16-20 h to—90% confluency. For transfection, medium was taken off and LXR and cofactor expressing plasmids as well as the reporter plasmids are added in 30 μL OPTIMEM/well including polyethylene-imine (PEI) as vehicle. Typical amounts of plasmids transfected/well: pCMV-AD-LXR (5 ng), pCMV-BD-cofactor (5 ng), pFR-Luc (100 ng), pRL-CMV (0.5 ng). Compound stocks were prepared in DMSO, prediluted in MEM to a total volume of 120 μL, and added 4 h after addition of the transfection mixture (final vehicle concentration not exceeding 0.2%). Cells were incubated for additional 16 h, lysed for 10 min in 1×Passive Lysis Buffer (Promega) and Firefly and Renilla luciferase activities were measured sequentially in the same cell extract using buffers containing D-luciferine and coelenterazine, respectively. Measurements of luminescence were done in a BMG-luminometer.

LXRα full length (FL) = target: T3, LXRα full length (FL) (Homo sapiens, UniProt Q13133); experiment: LXR Gal4 reporter transient transfection assay, mammalian two-hybrid, FL-M2H Gal4α; format: cell-based; conditions: HEK293 cells; inverse agonist unless *
T3 construct: the full length (FL) proteins of LXRα (amino acids 1-447); NP005684; expressed in transfected cells; host or cells: HEK293
T3 sequence (Q13133 1-447): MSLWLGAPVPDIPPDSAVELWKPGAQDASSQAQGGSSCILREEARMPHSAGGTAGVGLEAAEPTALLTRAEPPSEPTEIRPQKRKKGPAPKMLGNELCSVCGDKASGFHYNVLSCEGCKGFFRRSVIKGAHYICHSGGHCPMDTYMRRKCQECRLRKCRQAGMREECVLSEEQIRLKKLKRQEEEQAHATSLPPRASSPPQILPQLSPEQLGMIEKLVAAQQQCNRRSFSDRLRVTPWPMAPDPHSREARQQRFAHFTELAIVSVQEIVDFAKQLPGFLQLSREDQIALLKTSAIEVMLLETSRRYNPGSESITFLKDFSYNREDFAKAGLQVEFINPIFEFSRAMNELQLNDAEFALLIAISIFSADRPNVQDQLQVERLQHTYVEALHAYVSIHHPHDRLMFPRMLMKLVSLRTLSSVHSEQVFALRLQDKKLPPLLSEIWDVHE
Procedure: as §1, §2, §3

Cc1ccc2ccccc2c1C(=O)N(Cc1ccc(-c2cccc(S(=O)(=O)CC(=O)O)c2)cc1)Cc1ccc(C#N)o1 [27/2]
EC50 [1]: 1000 to 10000 nM
EC50 (LXRβ full length (FL)): 1000 to 10000 nM
EC50 (LXRα full length (FL)): 1000 to 10000 nM

Cc1ccc2ccccc2c1C(=O)N(Cc1ccc(-c2cccc(S(=O)(=O)CC(=O)O)c2)cc1)Cc1ccc(C(F)(F)F)[nH]1 [27/3]
EC50 [1]: 1000 to 10000 nM
EC50 (LXRβ full length (FL)): 1000 to 10000 nM
EC50 (LXRα full length (FL)): 1000 to 10000 nM

Cc1ccc2ccccc2c1C(=O)N(Cc1ccc(C(F)(F)F)o1)C1COc2cc(-c3cccc(C(C)(C)C(=O)O)c3)ccc21 (stereo not drawn) [27/4]
EC50 [1]: > 10000 nM
EC50 (LXRβ full length (FL)): 100 to 1000 nM
EC50 (LXRα full length (FL)): 100 to 1000 nM

Cc1ccc2ccccc2c1C(=O)N(Cc1ccc(-c2cccc(C(C)(C)C(=O)O)c2)cc1)C1CCc2ccc(C(F)(F)F)cc21 (stereo not drawn) [27/5]
EC50 [1]: 100 to 1000 nM
EC50 (LXRβ full length (FL)): < 100 nM
EC50 (LXRα full length (FL)): < 100 nM

Cc1ccc2ccccc2c1C(=O)N(Cc1ccc(C(F)(F)F)o1)Cc1c(F)cc(-c2cccc(C(C)(C)C(=O)O)c2)cc1Cl [27/6]
EC50 [1]: < 100 nM
EC50 (LXRβ full length (FL)): < 100 nM
EC50 (LXRα full length (FL)): < 100 nM

CC(c1cccc2ncccc12)N(Cc1ccc(-c2cccc(S(=O)(=O)CC(=O)O)c2)cc1)Cc1ccc(C(F)(F)F)o1 (stereo not drawn) [27/8]
EC50 [1]: 1000 to 10000 nM
EC50 (LXRβ full length (FL)): 100 to 1000 nM
EC50 (LXRα full length (FL)): 100 to 1000 nM

Cc1ccc2ccccc2c1C(=O)N(Cc1ccc(-c2cccc(C(C)(C)CC(=O)O)c2)cc1)Cc1ccc(C(F)(F)F)o1 [27/9]
EC50 [1]: 100 to 1000 nM
EC50 (LXRβ full length (FL)): < 100 nM
EC50 (LXRα full length (FL)): < 100 nM

COC(C)(C(=O)O)c1cccc(-c2ccc(CN(Cc3ccc(C(F)(F)F)o3)C(=O)c3c(C)ccc4ccccc34)cc2)c1 (stereo not drawn) [27/11]
EC50 [1]: 1000 to 10000 nM
EC50 (LXRβ full length (FL)): < 100 nM
EC50 (LXRα full length (FL)): < 100 nM

CC(C)(C(=O)O)c1cccc(-c2ccc(CN(Cc3ccc(C(F)(F)F)o3)C(=O)c3cccc4ncncc34)cc2)c1 [27/13]
EC50 [1]: 1000 to 10000 nM
EC50 (LXRβ full length (FL)): < 100 nM
EC50 (LXRα full length (FL)): 100 to 1000 nM

CC(C)(C(=O)O)c1cccc(-c2ccc(CN(Cc3ccc(C(F)(F)F)o3)C(=O)c3cccc4cnncc34)cc2)c1 [27/14]
EC50 [1]: 100 to 1000 nM
EC50 (LXRβ full length (FL)): 100 to 1000 nM
EC50 (LXRα full length (FL)): 1000 to 10000 nM

CC(C)(C(=O)O)c1cccc(-c2ccc(CN(Cc3ccc(C(F)(F)F)o3)Cc3cccc4c3CCOC4)cc2)c1 [27/15]
EC50 [1]: 100 to 1000 nM
EC50 (LXRβ full length (FL)): < 100 nM
EC50 (LXRα full length (FL)): < 100 nM

CC(C)(C(=O)O)c1cccc(-c2ccc(CN(Cc3ccc(C(F)(F)F)o3)Cc3cccc4c3CCCO4)cc2)c1 [27/16]
EC50 [1]: 100 to 1000 nM
EC50 (LXRβ full length (FL)): < 100 nM
EC50 (LXRα full length (FL)): < 100 nM

CN(C)c1ncc(CN(Cc2ccc(-c3cccc(C(C)(C)C(=O)O)c3)cc2)Cc2ccc(C(F)(F)F)o2)c2ccccc12 [27/18]
EC50 [1]: 100 to 1000 nM
EC50 (LXRβ full length (FL)): < 100 nM
EC50 (LXRα full length (FL)): < 100 nM

COc1ncc(CN(Cc2ccc(-c3cccc(C(C)(C)C(=O)O)c3)cc2)Cc2ccc(C(F)(F)F)o2)c2ccccc12 [27/19]
EC50 [1]: 100 to 1000 nM
EC50 (LXRβ full length (FL)): < 100 nM
EC50 (LXRα full length (FL)): < 100 nM

Cc1ccc2ccc(C)c(CN(Cc3ccc(-c4cccc(C(C)(C)C(=O)O)c4)cc3)Cc3ccc(C(F)(F)F)o3)c2c1 [27/20]
EC50 [1]: 100 to 1000 nM
EC50 (LXRβ full length (FL)): < 100 nM
EC50 (LXRα full length (FL)): < 100 nM

Cc1ccc2c(CN(Cc3ccc(-c4cccc(C(C)(C)C(=O)O)c4)cc3)Cc3ccc(C(F)(F)F)o3)c(C)ccc2c1 [27/21]
EC50 [1]: 100 to 1000 nM
EC50 (LXRβ full length (FL)): < 100 nM
EC50 (LXRα full length (FL)): < 100 nM

Cc1c(CN(Cc2ccc(-c3cccc(C(C)(C)C(=O)O)c3)cc2)Cc2ccc(C(F)(F)F)o2)c2ccccc2[nH]c1=O [27/22]
EC50 [1]: 100 to 1000 nM
EC50 (LXRβ full length (FL)): < 100 nM
EC50 (LXRα full length (FL)): 100 to 1000 nM

COc1ccc2c(CN(Cc3ccc(-c4cccc(C(C)(C)C(=O)O)c4)cc3)Cc3ccc(C(F)(F)F)o3)cc(C)cc2c1 [27/24]
EC50 [1]: 1000 to 10000 nM
EC50 (LXRβ full length (FL)): < 100 nM
EC50 (LXRα full length (FL)): 100 to 1000 nM

Cc1ccc2ccc(C(N)=O)cc2c1CN(Cc1ccc(-c2cccc(C(C)(C)C(=O)O)c2)cc1)Cc1ccc(C(F)(F)F)o1 [27/25]
EC50 [1]: 1000 to 10000 nM
EC50 (LXRβ full length (FL)): < 100 nM
EC50 (LXRα full length (FL)): 100 to 1000 nM
